From ChEMBL document CHEMBL1201862, “PubChem BioAssay data set” (2004) come the findings set out here.

Assay [1] deals with G-protein coupled receptor 55 (Homo sapiens, UniProt Q9Y2T6). Description: inhibition of LPI-stimulated GPR55 beta-arrestin translocation – imaging, U2OS, beta-arrestin-GFP, LPI agonist, primary screen (AID 2013).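 Note: antagonist potency measured as reduced agonist-driven arrestin aggregation.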 Format: functional.
The target of assay [2] is T1, Neuropeptides B/W receptor type 1 (Homo sapiens, UniProt P48145).
T1 sequence (P48145 whole entry): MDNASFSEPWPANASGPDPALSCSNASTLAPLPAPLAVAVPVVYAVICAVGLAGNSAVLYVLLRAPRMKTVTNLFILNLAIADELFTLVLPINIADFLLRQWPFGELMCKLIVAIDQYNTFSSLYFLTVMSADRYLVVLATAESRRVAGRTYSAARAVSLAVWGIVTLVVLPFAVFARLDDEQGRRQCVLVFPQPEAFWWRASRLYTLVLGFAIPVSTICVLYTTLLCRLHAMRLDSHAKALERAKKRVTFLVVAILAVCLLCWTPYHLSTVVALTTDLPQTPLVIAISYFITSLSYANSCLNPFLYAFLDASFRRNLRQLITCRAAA
Description: Fluorescence-based dose response cell-based high throughput screening assay to identify antagonists of the G-protein coupled receptor 7 (GPR7). [Related pubchem assays: 1952 (Screening assay (GPR7 antagonists).), 1880 (Summary AID.)]. The class given is functional.

For assay [3], the target named is Melanin-concentrating hormone receptor 1 (Homo sapiens, UniProt Q99705). Description: Fluorescence-based counterscreen for antagonists of the G-protein coupled receptor 7 (GPR7): cell-based high throughput dose response assay to identify antagonists of the melanin-concentrating hormone receptor 1 (MCHR1). Format: functional. For orientation: A counterscreen serves to expose hits that act by an unwanted route or on another target.
Chain of Melanin-concentrating hormone receptor 1 (Q99705 whole entry): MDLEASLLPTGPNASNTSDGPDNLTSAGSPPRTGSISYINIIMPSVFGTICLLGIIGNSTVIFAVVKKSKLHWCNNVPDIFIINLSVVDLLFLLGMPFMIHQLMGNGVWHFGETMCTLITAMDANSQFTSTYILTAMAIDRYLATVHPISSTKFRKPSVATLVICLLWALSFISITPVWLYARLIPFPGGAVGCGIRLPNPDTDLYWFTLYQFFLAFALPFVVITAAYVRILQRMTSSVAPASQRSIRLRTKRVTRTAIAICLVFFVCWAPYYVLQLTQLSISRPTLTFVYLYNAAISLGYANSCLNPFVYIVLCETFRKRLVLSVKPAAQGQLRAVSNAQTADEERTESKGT

Assay [4] concerns the target T2, Heat shock factor protein 1 (Mus musculus, UniProt P38532).
T2 sequence (P38532 whole entry): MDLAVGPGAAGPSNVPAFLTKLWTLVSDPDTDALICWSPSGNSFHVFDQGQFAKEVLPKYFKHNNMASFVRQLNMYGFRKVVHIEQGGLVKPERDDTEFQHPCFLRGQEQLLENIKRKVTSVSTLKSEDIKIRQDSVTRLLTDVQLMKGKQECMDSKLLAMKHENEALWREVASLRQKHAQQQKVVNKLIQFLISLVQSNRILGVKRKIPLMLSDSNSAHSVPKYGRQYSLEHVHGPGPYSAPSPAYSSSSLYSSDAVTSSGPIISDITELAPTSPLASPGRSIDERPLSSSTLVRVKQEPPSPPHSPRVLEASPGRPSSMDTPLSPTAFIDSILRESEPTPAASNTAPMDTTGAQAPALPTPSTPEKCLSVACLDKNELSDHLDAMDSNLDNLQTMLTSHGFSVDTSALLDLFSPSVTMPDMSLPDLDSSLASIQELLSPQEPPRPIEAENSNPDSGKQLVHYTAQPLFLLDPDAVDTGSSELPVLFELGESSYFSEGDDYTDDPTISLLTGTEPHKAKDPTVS
Description: enhancement of HSF1-driven luciferase signal – cell-based, NIH3T3, luminescence, dose retest, confirmation (AID 435004).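 Note: stress induced by proteasome inhibitor MG132 added 30 min after compound; luciferase reporter driven by HSF1 response element in NIH3T3 cells; actives raise luminescence as potentiators of the MG132 stress response.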 The class given is functional.

Assay [5] addresses T3, Delta-type opioid receptor (Homo sapiens, UniProt P41143). As to the kind of experiment: HTS Image-Based Screen for Antagonists of the DOR Receptor. [Related pubchem assays (depositor defined):AID1777, AID1785, AID1786, AID2133]. The class given is functional.
Assay [6] addresses T4, Kappa-type opioid receptor (Homo sapiens, UniProt P41145). Format: functional.
For assay [7], the target named is T4, Kappa-type opioid receptor. The class given is functional. The source holds these as a separate data set.
For another assay, the target named is Mu-type opioid receptor (Homo sapiens, UniProt P35372). Description: HTS Image-Based Screen for Agonists of the MOR Receptor. [Related pubchem assays (depositor defined):AID1777, AID1785, AID1786, AID2133]. The class given is functional.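 Note: imaging of beta-arrestin GFP recruitment into spots after receptor activation.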
Chain of Mu-type opioid receptor (P35372 whole entry): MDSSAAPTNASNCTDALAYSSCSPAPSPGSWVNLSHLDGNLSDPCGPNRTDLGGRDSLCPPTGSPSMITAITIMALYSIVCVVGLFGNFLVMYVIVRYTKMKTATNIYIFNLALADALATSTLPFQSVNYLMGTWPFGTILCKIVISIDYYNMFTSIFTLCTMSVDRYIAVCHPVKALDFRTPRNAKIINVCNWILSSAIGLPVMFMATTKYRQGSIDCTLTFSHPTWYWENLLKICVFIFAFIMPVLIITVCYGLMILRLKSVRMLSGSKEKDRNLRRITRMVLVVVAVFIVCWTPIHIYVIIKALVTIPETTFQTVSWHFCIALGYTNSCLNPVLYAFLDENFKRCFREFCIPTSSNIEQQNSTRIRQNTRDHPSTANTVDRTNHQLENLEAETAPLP
In assay [8] the target is T3, Delta-type opioid receptor. As to the kind of experiment: HTS Image-Based Screen for Agonists of the DOR Receptor. [Related pubchem assays (depositor defined):AID1777, AID1786, AID2133]. The class given is functional.
The target of assay [9] is T5, Beta-galactosidase (Escherichia coli, UniProt Q8VNN2). Description: detection-enzyme interference by beta-gal modulators – biochemical, E. coli enzyme, set 3, artefact control for CCR6 antagonist project, dose response (AID 504712). Format: functional.
T5 sequence (Q8VNN2 whole entry): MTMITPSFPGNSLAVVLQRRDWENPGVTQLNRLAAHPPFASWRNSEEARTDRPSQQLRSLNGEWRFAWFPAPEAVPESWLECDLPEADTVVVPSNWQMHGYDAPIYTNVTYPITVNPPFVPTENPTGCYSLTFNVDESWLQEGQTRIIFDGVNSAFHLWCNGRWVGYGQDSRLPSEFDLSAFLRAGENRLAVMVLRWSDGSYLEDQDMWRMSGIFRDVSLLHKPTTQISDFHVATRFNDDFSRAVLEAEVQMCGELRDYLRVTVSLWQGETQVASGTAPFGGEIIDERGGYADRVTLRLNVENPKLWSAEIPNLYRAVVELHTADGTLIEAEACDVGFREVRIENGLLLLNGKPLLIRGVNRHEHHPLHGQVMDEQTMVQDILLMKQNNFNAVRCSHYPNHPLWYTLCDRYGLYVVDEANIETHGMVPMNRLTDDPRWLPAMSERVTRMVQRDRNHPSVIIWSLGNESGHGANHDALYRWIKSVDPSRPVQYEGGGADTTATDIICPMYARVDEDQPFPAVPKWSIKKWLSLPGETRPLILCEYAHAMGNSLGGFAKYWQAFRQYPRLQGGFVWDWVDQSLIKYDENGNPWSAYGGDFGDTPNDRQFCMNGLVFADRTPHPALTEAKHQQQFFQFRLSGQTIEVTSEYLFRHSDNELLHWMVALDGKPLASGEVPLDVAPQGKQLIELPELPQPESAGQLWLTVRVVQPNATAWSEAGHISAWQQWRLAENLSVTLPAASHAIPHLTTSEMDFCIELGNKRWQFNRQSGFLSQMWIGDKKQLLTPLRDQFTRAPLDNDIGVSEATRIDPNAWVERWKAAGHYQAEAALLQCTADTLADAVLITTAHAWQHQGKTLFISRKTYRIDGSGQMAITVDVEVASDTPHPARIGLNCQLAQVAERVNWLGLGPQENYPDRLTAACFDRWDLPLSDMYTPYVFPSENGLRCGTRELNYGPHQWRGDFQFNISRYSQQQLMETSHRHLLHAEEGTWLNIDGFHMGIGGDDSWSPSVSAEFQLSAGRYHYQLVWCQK
In a further assay the target is T6, Mucolipin-3 (Homo sapiens, UniProt Q8TDD5).
T6 sequence (Q8TDD5 whole entry): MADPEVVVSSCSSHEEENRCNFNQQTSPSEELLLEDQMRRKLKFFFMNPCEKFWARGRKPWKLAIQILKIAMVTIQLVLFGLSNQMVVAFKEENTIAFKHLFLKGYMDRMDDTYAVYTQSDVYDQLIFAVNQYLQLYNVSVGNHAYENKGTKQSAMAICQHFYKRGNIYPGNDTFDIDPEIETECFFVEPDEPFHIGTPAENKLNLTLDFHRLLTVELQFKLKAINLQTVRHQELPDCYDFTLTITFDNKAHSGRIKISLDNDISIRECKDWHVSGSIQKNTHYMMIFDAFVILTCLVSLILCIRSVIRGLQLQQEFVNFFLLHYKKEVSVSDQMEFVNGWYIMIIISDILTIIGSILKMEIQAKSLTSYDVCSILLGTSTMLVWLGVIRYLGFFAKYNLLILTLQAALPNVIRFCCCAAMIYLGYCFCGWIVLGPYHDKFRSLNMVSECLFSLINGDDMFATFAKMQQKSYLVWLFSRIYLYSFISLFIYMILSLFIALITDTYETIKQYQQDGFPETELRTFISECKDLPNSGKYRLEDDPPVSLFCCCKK
As to the kind of experiment: Dose response cell-based high-throughput screening assay for agonists of the transient receptor potential channel ML3 (TRPML3). [Related pubchem assays: 1526, 1424, 1448 ]. The class given is functional.

Assay [10] has as its target T4, Kappa-type opioid receptor. The class given is functional. This is another data set of the same source.
Assay [11] concerns the target T4, Kappa-type opioid receptor. The class given is functional. The source holds these as a separate data set.
Assay [12] deals with T5, Beta-galactosidase. The class given is functional.
For assay [13], the target named is Photoreceptor-specific nuclear receptor (Homo sapiens, UniProt Q9Y5X4). The class given is functional, cell-based.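 Note: CHO-S cells with Gal4-NCOR and VP16-NR2E3 two-hybrid luciferase reporter.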
Chain of Photoreceptor-specific nuclear receptor (Q9Y5X4 whole entry, the tested form may be a part): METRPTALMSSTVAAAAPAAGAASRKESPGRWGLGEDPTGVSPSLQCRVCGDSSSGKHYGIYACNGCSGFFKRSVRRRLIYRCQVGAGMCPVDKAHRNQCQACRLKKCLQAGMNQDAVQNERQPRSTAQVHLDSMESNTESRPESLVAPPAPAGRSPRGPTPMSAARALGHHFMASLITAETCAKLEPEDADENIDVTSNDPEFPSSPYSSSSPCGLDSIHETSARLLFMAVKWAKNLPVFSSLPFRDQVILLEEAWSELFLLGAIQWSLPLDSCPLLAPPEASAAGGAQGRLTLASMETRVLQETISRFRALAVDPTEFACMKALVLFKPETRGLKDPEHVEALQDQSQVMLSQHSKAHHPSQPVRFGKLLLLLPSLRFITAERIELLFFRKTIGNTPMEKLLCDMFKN
The target in another assay is Ion channel NompC (Danio rerio, UniProt Q7T1G6). Description: Fluorescence counterscreen assay for TRPML3 agonists: dose response cell-based high-throughput screening assay to identify agonists of the transient receptor potential channel N1 (TRPN1). [Related pubchem assays: 1526, 1424, 1448 ]. Format: functional.
Assay [14] concerns the target T7, Sentrin-specific protease 1 (Homo sapiens, UniProt Q9P0U3).
T7 sequence (Q9P0U3 whole entry): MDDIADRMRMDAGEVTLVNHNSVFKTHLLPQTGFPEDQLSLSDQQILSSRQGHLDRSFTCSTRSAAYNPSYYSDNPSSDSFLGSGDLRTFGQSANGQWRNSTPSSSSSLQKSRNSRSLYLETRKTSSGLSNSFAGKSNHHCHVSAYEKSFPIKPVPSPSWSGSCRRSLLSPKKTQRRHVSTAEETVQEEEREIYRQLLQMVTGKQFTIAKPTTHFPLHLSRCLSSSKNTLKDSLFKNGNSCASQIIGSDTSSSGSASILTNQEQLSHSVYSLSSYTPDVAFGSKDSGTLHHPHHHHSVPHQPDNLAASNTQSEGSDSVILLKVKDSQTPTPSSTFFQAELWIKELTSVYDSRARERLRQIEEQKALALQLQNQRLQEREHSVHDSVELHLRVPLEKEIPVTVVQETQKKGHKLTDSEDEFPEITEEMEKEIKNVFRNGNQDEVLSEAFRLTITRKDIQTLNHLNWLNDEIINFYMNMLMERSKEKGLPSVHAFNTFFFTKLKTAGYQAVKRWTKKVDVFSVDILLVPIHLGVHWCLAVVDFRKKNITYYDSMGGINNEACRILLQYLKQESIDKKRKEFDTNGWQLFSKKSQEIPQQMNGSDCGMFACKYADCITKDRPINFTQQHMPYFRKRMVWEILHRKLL
As to the kind of experiment: Dose response confirmation of small molecule inhibitors of the catalytic domain of the SUMO protease, SENP1 in a FRET assay. The class given is functional. The conditions noted are these: read-out: IC50_Mean.

For assay [15], the target named is T7, Sentrin-specific protease 1. As to the kind of experiment: SENP1 catalytic domain blockers, concentration series – biochemical, kinetic FRET, dose response (AID 651697). The conditions noted are these: read-out: IC50_Mean. The class given is functional.
In assay [16] the target is T8, Polyadenylate-binding protein 1 (Homo sapiens, UniProt P11940). Description: MLLE domain peptide-binding blockers, IC50 – biochemical, fluorescence polarization, FITC-PAM2 peptide, dose response (AID 602259). Format: functional. The conditions noted are these: read-out: IC50_Mean.
T8 sequence (P11940 whole entry, the tested form may be a part): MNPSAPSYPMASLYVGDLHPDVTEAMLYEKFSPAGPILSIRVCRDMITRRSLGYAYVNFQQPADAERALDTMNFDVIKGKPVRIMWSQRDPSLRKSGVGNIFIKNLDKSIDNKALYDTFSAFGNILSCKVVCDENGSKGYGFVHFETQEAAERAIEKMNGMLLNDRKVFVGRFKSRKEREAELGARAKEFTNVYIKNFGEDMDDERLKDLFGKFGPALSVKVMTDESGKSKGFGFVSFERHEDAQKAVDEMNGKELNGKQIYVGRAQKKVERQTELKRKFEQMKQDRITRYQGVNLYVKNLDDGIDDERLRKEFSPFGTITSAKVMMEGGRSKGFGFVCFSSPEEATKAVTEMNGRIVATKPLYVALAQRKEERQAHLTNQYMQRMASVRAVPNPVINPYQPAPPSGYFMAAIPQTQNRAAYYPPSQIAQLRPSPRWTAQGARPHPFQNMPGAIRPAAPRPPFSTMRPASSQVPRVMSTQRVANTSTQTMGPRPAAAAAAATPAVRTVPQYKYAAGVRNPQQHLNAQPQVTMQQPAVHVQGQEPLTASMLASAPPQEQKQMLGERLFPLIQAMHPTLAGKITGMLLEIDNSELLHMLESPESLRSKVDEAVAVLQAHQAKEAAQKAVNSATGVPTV
The target in assay [17] is Female germline-specific tumor suppressor gld-1 (Caenorhabditis elegans, UniProt Q17339). As to the kind of experiment: blockers of GLD-1/TGE RNA complex formation – biochemical, fluorescence polarization, C. elegans, dose response (AID 2802).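 Note: fluorescence polarization of labeled TGE RNA bound by purified gld-1 protein.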
Chain of Female germline-specific tumor suppressor gld-1 (Q17339 whole entry): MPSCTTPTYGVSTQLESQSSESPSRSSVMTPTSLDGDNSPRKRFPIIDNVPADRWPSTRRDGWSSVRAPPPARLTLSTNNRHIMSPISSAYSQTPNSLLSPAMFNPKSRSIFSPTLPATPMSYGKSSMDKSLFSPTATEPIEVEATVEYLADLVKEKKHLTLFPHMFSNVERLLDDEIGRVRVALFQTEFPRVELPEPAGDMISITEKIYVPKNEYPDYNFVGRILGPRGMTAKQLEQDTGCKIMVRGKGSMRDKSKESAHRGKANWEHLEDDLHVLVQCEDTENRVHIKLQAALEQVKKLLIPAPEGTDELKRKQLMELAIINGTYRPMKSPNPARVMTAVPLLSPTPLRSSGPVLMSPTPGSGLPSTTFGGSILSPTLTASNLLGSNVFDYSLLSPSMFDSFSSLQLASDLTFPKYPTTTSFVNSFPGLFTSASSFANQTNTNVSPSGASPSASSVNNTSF
For assay [18], the target named is T9, Corticotropin-releasing factor receptor 2/Corticotropin-releasing factor-binding protein (Homo sapiens, UniProt P24387+Q13324).
T9 sequence (Q13324 whole entry): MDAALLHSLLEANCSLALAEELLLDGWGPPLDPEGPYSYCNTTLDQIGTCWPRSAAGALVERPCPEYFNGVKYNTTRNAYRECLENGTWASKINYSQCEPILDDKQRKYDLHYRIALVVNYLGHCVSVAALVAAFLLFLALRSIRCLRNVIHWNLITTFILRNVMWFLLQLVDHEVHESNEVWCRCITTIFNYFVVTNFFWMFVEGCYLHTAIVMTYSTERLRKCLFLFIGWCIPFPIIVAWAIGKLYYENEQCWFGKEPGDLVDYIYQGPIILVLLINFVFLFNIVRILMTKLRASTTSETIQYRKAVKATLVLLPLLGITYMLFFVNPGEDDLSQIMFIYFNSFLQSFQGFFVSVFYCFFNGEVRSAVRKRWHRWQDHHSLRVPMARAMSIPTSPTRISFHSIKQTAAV
T9 sequence (P24387 whole entry): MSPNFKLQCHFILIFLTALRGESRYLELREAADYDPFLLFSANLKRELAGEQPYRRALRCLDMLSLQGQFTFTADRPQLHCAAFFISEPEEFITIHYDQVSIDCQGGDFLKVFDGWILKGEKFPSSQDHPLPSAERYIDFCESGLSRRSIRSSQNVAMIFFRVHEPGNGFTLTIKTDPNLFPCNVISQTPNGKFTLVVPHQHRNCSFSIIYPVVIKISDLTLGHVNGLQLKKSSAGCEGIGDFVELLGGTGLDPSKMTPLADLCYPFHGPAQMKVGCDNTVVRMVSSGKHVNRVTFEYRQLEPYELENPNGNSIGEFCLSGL
Description: activators of CRF receptor 2 with binding protein – uHTS hits, confirmation (AID 602473). The class given is functional. The conditions noted are these: read-out: EC50_Mean.

The next assay has as its target Protein Rev (Human immunodeficiency virus type 1 group M subtype B (isolate HXB2)(HIV-1), UniProt P04618). As to the kind of experiment: blockers of HIV Rev/RRE RNA complex – biochemical, fluorescence polarization, HIV-1, dose response (AID 434976). Details: species or system Human immunodeficiency virus 1. In general terms: In fluorescence polarisation assays a small probe gives low polarisation when free and higher when bound to something large.

The target in assay [19] is T8, Polyadenylate-binding protein 1. Description: MLLE binding blockers, Cy5 peptide tracer – biochemical, fluorescence polarization, Cy5-PAM2 peptide, secondary, miRNA deadenylation inhibitor project, dose response (AID 602260). The conditions noted are these: read-out: IC50_Mean. The class given is functional.

Molecules are shown by their SMILES. Activity calls are given as the source filed them. Where only a bound is given, the exact number is not on record here.

T4 sequence (P41145 whole entry): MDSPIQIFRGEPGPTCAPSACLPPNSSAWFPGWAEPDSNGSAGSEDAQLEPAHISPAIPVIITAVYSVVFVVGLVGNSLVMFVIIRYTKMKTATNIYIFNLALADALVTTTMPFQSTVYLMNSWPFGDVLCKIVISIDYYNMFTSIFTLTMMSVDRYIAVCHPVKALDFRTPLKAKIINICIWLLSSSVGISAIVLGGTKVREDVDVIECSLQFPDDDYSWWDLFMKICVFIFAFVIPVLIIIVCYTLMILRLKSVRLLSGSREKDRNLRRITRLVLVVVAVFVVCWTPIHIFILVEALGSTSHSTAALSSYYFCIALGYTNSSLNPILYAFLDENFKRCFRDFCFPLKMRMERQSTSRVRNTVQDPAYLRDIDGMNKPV
T3 sequence (P41143 whole entry): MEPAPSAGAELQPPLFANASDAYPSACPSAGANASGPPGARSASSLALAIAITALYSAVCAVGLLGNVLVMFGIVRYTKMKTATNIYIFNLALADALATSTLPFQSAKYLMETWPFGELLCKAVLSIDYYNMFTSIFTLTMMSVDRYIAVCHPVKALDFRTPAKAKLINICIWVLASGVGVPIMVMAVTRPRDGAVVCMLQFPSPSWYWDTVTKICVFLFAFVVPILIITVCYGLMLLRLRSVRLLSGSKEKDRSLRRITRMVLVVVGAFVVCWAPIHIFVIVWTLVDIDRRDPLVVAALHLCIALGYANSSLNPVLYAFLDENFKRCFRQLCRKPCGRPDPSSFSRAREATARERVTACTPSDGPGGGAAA
Chain of Protein Rev (P04618 whole entry): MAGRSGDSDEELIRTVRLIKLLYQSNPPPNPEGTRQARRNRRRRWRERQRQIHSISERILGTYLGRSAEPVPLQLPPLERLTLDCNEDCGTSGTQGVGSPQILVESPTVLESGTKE
Chain of G-protein coupled receptor 55 (Q9Y2T6 whole entry): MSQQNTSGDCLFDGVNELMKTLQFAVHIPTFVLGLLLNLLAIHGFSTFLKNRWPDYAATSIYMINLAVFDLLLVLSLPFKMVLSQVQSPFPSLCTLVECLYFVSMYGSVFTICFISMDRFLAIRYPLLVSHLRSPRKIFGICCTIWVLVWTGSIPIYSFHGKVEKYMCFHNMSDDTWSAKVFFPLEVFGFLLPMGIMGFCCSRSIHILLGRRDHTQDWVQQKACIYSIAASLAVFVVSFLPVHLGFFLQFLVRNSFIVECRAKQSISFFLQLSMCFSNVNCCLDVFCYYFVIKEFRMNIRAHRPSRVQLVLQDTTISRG

Consider `C[C@H](NC(=O)c1nc[nH]c1C(=O)Nc1ccc(CNC(=O)OC(C)(C)C)cc1)C(=O)OC(C)(C)C`, for which the IC50 in [1] is 2.55 µM (active).
`O=C(c1ccccn1)N(Cc1ccco1)C1(C(=O)NC2CCCC2)CCCCC1`: the IC50 in assay [2] was > 43.8 µM (not active); in [3] it was > 43.8 µM (not active); in assay [5], > 32 µM (inactive). The EC50 in assay [4] is > 260 µM (inactive); in assay [6], 14.6 µM; in assay [7], 12.3 µM; at Mu-type opioid receptor it was > 32 µM (inactive); in assay [8] it was > 32 µM (inactive).
For the compound `N=C1SCC(=O)N1c1ncc(Cc2ccccc2Cl)s1`, the IC50 is > 66.6 µM (inactive) at Beta-galactosidase [9], more than 32 µM in assay [10], 6.6 µM (active) in assay [11] and 3 µM (active) in assay [13]. Besides, the results for the EC50 at Mucolipin-3, at Beta-galactosidase [12] and at Ion channel NompC were 1.16 µM (active), > 31.5 µM (inactive) and > 29.9 µM (not active), respectively.
Regarding `O=C1C2=C(SCCS2)C(=O)N1CCCO`, the IC50 was 35.2 µM (inactive) in [14]; 20.5 µM (inactive) in [15]; 28 µM (inactive) in assay [16]; 4.07 µM (active) in [17]; > 75.4 µM (not active) on Protein Rev; > 66 µM (inactive) in [19]. In assay [18], the EC50 was > 53 µM (inactive).
